Results published in patent publication US20260034135A1, “USE OF N6-BENZYLAMINOPURINE AS AN APPETITE SUPPRESSANT” (THE GOVERNING COUNCIL OF THE UNIVERSITY OF TORONTO, priority 2022, published 2026).

How the values were obtained:
[1] = test system: AMPK; experiment: AMPK phosphorylation by Western blot in mHypoE-46; format: cell-based, mouse; conditions: 100 μM BAP, 15 min, mHypoE-46
Description: mHypoE-46 cells were serum starved in 5.5 mM glucose (LG) DMEM for 1 hour prior to treatment with vehicle (0.1% DMSO), 100 µM BAP or H20, […] 5-Aminoimidazole-4-carboxamide ribonucleotide (AICAR) or 0 mM glucose DMEM. Protein was harvested using 1× cell lysis buffer (Cell Signaling Technologies, Inc, CST) containing protease and phosphatase inhibitors. A total of 30 μg protein was separated on a 12% SDS-polyacrylamide gels and transferred onto PVDF membranes. Membranes were blocked in 5% milk dissolved in Tris-buffered saline with Tween 20 (TBS-T) for 1 h and incubated with primary antibody overnight at 4° C. phospho-AMPKα (Thr172; cat. 2532S, CST), and total AMPKα (cat. 2535S, CST); phospho-p70-S6K (Thr389; cat. 9205S, CST) and total p70-S6K (cat. 9202S, CST); insulin receptor ß (cat. 3025S, CST); phospho-AKT (Ser473; cat. 9271S, CST) and total AKT (cat. 9272S, CST); phospho-ERK1/2 (Thr202/Tyr204; cat. 9101, CST) and total ERK (cat. 4695, CST) were diluted 1:1000 in 5% milk in TBS-T. Membranes were washed and incubated with secondary HRP-linked antirabbit antibody (1:7500 in 5% milk in TBS-T, CST) for 1 h, washed, and imaged using the Signal Fire ECL Reagent (CST) on the iBright 1500 Imaging System (Thermofisher). Protein density was quantified using ImageJ or the iBright Imaging System.

[2] = test system: mHypoE-38 cell line; experiment: Gene expression by qRT-PCR in mHypoE-38 hypothalamic cell line; format: cell-based, mouse; conditions: 100 μM BAP, 16 hr
Description: Hypothalamic neurons from embryonic and adult mice were previously immortalized to generate the clonal cell lines mHypoE-46, mHypoE-44, mHypoE-41, mHypoE-38, mHypoA-59, a FAC-sorted POMC/GFP mouse-derived cell line, mHypoA-POMC/GFP-2, and a mixed culture mHypoA-Bmal1-WT/F cell line (6, 13, 14). The mHypoE-46, mHypoE-44, and mHypoA-Bmal1-WT/F lines were cultured in DMEM containing 1000 mg/L glucose supplemented with 5% FBS and 1% pen/strep. The mHypoE-41, mHypoE-38, and mHypoA-59 cell lines were cultured in DMEM containing 4500 mg/L glucose supplemented with 2% FBS and 1% pen/strep. The mHypoA-POMC/GFP-2 line was cultured in DMEM containing 1000 mg/L glucose supplemented with 2% FBS and 1% pen/strep. […] Neuropeptide gene expression levels were determined by qRT-PCR.
For cell culture experiments, total RNA was isolated using PureLink RNA isolation kit (Thermofisher Scientific, Burlington, ON, Canada) according to the manufacturer's instruction with on column DNase step (PureLink DNAse kit) or DNase I treatment to remove genomic DNA. […] RNA quality and quantity were measured using Nanodrop 2000 and 500-1000 ng of complimentary DNA (cDNA) was synthesized with High Capacity cDNA Reverse Transcription kit (Applied biosystems, Thermofisher Scientific). […] Data was analyzed using […] and normalized to reference gene, either 60S ribosomal protein L7 (Rpl7) or Histone 3a (His).

[3] = Intraperitoneal glucose tolerance test (GTT); format: in vivo, CD-1 mice; conditions: male CD-1, HFD, cohort BSF
Description: […] The mice were then briefly fasted to determine the response to insulin or glucose. For the intraperitoneal glucose tolerance test, male mice were transferred to new clean cages and fasted for 6 hours prior to GTT. After 5 hours of fasting, the mice were weighed to determine their proper glucose dosage. The appropriate amount of 20% glucose solution was aliquoted for each mouse (2 g/kg). After 6 hours of fasting, the mice had their blood glucose measured via tail vein using a glucometer. This was recorded as the blood glucose at 0-minute timepoint. The mice were then intraperitoneal injected with their aliquoted glucose solution and returned to their cage. Blood glucose was measured via the tail vein 15, 30, 60, 90, and 120 minutes after glucose injection. Upon completion of GTT, the mice were returned to their cages with food and water and were closely monitored to ensure proper recovery.

[4] = test system: ERK1/2; experiment: ERK1/2 (Thr202/Tyr204) phosphorylation by Western blot in mHypoE-46; format: cell-based, mouse; conditions: 100 μM BAP, 5 minutes
Description: mHypoE-46 cells were serum starved in 5.5 mM glucose (LG) DMEM for 1 hour prior to treatment with vehicle (0.1% DMSO), 100 µM BAP or H20, […] 5-Aminoimidazole-4-carboxamide ribonucleotide (AICAR) or 0 mM glucose DMEM. Protein was harvested using 1× cell lysis buffer (Cell Signaling Technologies, Inc, CST) containing protease and phosphatase inhibitors. A total of 30 μg protein was separated on a 12% SDS-polyacrylamide gels and transferred onto PVDF membranes. […] Protein density was quantified using ImageJ or the iBright Imaging System.
We also assessed the activity of another key signal transduction cascade, the MAPK ERK1/2 pathway. mHypoE-46 neurons were treated with 100 μM BAP and vehicle control for 5 minutes followed by protein isolation and Western blot analysis. The phosphorylation level of ERK1/2, one of the MAPK family members, was assessed.

[5] = daily oral BAP emulsion, 27 days

Question: For `c1ccc(CNc2ncnc3nc[nH]c23)cc1` [BAP, N6-benzylaminopurine], which “AMPK phosphorylation or activation vs vehicle” value [1] is on record?
Answer: Its value is “significant decrease”.

Question: And the “Agrp mRNA expression” value [2]?
Answer: Its value is “increased”.

Question: What about the “Npy mRNA expression” value [2] of the same compound?
Answer: The value was “no effect”.

Question: And the “glucose uptake in a GTT” value ([3]; BAP emulsion 14 days)?
Answer: The value was “no change in glucose uptake”.

Question: And the “fasting blood glucose vs HFD without BAP (GTT)” value [3, 5]?
Answer: The value was “significantly lower”.

Question: And the “glucose response in GTT” value [3, 5]?
Answer: The value was “improved glucose response”.

Question: What about the “ERK1/2 phosphorylation at Thr202/Tyr204” value [4] of the same compound?
Answer: The value was “significantly decreased”.
